Laboratory results as given in PubChem BioAssay AID330 (DTP/NCI, 2004).
“And” between values parts separate entries of the source, which are not always exact repeats. Equal entries are not always repeated. Inconclusive results and toxic doses are left out. The calls were made as follows: active = survival T/C of 150% or more; inactive = T/C below 125% in these data.

Tested on: P388 leukemia ip, CD2F1 mice, survival T/C
Assay: NCI In Vivo Anticancer Drug Screen. Data for tumor model P388 Leukemia (intraperitoneal) in CD2F1 (CDF1) mice
Conditions: endpoint: median survival time, higher = longer survival
In short: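 Mice carrying the transplanted tumor received test compound or vehicle. Survival was recorded in each group, and the value is the treated-group measurement divided by that of the vehicle-treated control group.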

[1] = dose: 50.0 mg/kg/injection, schedule: Q01DX009 (ip), vehicle: saline with Tween-80
[2] = dose: 100.0 mg/kg/injection, schedule: Q01DX009 (ip), vehicle: saline with Tween-80
[3] = dose: 200.0 mg/kg/injection, schedule: Q01DX009 (ip), vehicle: saline with Tween-80
[4] = dose: 12.5 mg/kg/injection, schedule: Q01DX009 (ip), vehicle: water
[5] = dose: 25.0 mg/kg/injection, schedule: Q01DX009 (ip), vehicle: water
[6] = dose: 50.0 mg/kg/injection, schedule: Q01DX009 (ip), vehicle: water
[7] = dose: 50.0 mg/kg/injection, schedule: Q01DX005 (ip), vehicle: saline
[8] = dose: 100.0 mg/kg/injection, schedule: Q01DX005 (ip), vehicle: saline
[9] = dose: 200.0 mg/kg/injection, schedule: Q01DX005 (ip), vehicle: saline
[10] = dose: 6.25 mg/kg/injection, schedule: Q01DX005 (ip), vehicle: Klucel (hydroxypropylcellulose) (HPC)
[11] = dose: 12.5 mg/kg/injection, schedule: Q01DX005 (ip), vehicle: Klucel (hydroxypropylcellulose) (HPC)
[12] = dose: 25.0 mg/kg/injection, schedule: Q01DX005 (ip), vehicle: Klucel (hydroxypropylcellulose) (HPC)
[13] = dose: 12.5 mg/kg/injection, schedule: Q01DX009 (ip), vehicle: saline
[14] = dose: 25.0 mg/kg/injection, schedule: Q01DX009 (ip), vehicle: saline
[15] = dose: 50.0 mg/kg/injection, schedule: Q01DX009 (ip), vehicle: saline
[16] = dose: 100.0 mg/kg/injection, schedule: Q01DX009 (ip), vehicle: saline
[17] = dose: 200.0 mg/kg/injection, schedule: Q01DX009 (ip), vehicle: saline
[18] = dose: 400.0 mg/kg/injection, schedule: Q01DX009 (ip), vehicle: saline
[19] = dose: 50.0 mg/kg/injection, schedule: Q01DX005 (ip), vehicle: saline with Tween-80
[20] = dose: 100.0 mg/kg/injection, schedule: Q01DX005 (ip), vehicle: saline with Tween-80
[21] = dose: 200.0 mg/kg/injection, schedule: Q01DX005 (ip), vehicle: saline with Tween-80
[22] = dose: 12.5 mg/kg/injection, schedule: Q01DX009 (ip), vehicle: Klucel (hydroxypropylcellulose) (HPC)
[23] = dose: 25.0 mg/kg/injection, schedule: Q01DX009 (ip), vehicle: Klucel (hydroxypropylcellulose) (HPC)
[24] = dose: 50.0 mg/kg/injection, schedule: Q01DX005 (ip), vehicle: Klucel (hydroxypropylcellulose) (HPC)
[25] = dose: 100.0 mg/kg/injection, schedule: Q01DX005 (ip), vehicle: Klucel (hydroxypropylcellulose) (HPC)
[26] = dose: 50.0 mg/kg/injection, schedule: Q01DX009 (ip), vehicle: Klucel (hydroxypropylcellulose) (HPC)
[27] = dose: 100.0 mg/kg/injection, schedule: Q01DX009 (ip), vehicle: Klucel (hydroxypropylcellulose) (HPC)

Measured: T/C

NNC(=O)c1cc2ccccc2cc1O
inactive: [1] 99 % of control | [2] 100 % of control | [3] 95 % of control

COc1cccc(CN2CCCNCC2)c1
inactive: dose: 6.25 mg/kg/injection, schedule: Q01DX009 (ip), vehicle: water 93 % of control | [4] 93 % of control | [5] 97 % of control | [6] 101 % of control

CC(=O)OCC1OC(n2cccc(OC(C)=O)c2=O)C(OC(C)=O)C1OC(C)=O (stereo unspecified)
inactive: [7] 103 % of control | dose: 50.0 mg/kg/injection, schedule: Q01DX005 (ip), vehicle: suspension in saline 99 % of control | [8] 99 % of control | dose: 100.0 mg/kg/injection, schedule: Q01DX005 (ip), vehicle: suspension in saline 99 % of control | [9] 102 % of control | dose: 200.0 mg/kg/injection, schedule: Q01DX005 (ip), vehicle: suspension in saline 113 % of control | dose: 400.0 mg/kg/injection, schedule: Q01DX005 (ip), vehicle: saline 98 % of control | dose: 400.0 mg/kg/injection, schedule: Q01DX005 (ip), vehicle: suspension in saline 96 % of control

C=C1C[C@]23C[C@H](O)[C@]4(O)[C@@]5(C)C[C@H](O)C[C@]46C(C2[C@@H]1[C@@H](OC(=O)/C(C)=C/C)[C@@H](OC(=O)/C(C)=C/C)[C@H]36)N(C)C5 (stereo partly specified)
inactive: dose: 0.5 mg/kg/injection, schedule: Q01DX005 (ip), vehicle: saline + alcohol 102 % of control | dose: 1.0 mg/kg/injection, schedule: Q01DX005 (ip), vehicle: saline + alcohol 105 % of control and 106 % of control | dose: 2.0 mg/kg/injection, schedule: Q01DX005 (ip), vehicle: saline + alcohol 105 % of control and 109 % of control | dose: 4.0 mg/kg/injection, schedule: Q01DX005 (ip), vehicle: saline + alcohol 103 % of control and 109 % of control | dose: 8.0 mg/kg/injection, schedule: Q01DX005 (ip), vehicle: saline + alcohol 103 % of control

CC1(C)CC(=O)C=C(NC2CCCCC2)C1
inactive: [1] 91 % of control | [2] 100 % of control

C1CC[C@]2([C@]34CCCC[C@H]3O4)O[C@@H]2C1
inactive: dose: 60.0 mg/kg/injection, schedule: Q01DX005 (ip), vehicle: Klucel (hydroxypropylcellulose) (HPC) 99 % of control | dose: 120.0 mg/kg/injection, schedule: Q01DX005 (ip), vehicle: Klucel (hydroxypropylcellulose) (HPC) 100 % of control | dose: 240.0 mg/kg/injection, schedule: Q01DX005 (ip), vehicle: Klucel (hydroxypropylcellulose) (HPC) 104 % of control

O=C(CC(=NCC(O)CN=C(CC(=O)c1ccccc1)c1ccccc1)c1ccccc1)c1ccccc1 (stereo unspecified)
inactive: dose: 100.0 mg/kg/injection, schedule: Q04DX002 (ip), vehicle: saline with Tween-80 98 % of control | dose: 200.0 mg/kg/injection, schedule: Q04DX002 (ip), vehicle: saline with Tween-80 98 % of control | dose: 400.0 mg/kg/injection, schedule: Q04DX002 (ip), vehicle: saline with Tween-80 91 % of control

NNP(=S)(NN)Oc1ccccc1
inactive: [10] 96 % of control | [11] 114 % of control | [12] 105 % of control

C[C@H]1CN[C@@H]2[C@@H](C)[C@H]3[C@@H](C[C@H]4[C@@H]5CC[C@H]6C[C@@H](N)CC[C@]6(C)[C@H]5CC[C@]34C)O[C@@]2(O)C1
inactive: dose: 3.12 mg/kg/injection, schedule: Q01DX009 (ip), vehicle: saline 103 % of control | dose: 6.25 mg/kg/injection, schedule: Q01DX009 (ip), vehicle: saline 94 % of control | [13] 100 % of control | [14] 98 % of control

O=C(O)C1=NN(c2ccc(S(=O)(=O)O)cc2)C(=O)C1N=Nc1ccc(S(=O)(=O)O)cc1 (stereo unspecified)
inactive: [15] 95 % of control | [16] 100 % of control | [17] 100 % of control | [18] 95 % of control

N#C/C(N)=C(\C#N)N=Cc1ccc(N(CCCl)CCCl)cc1
inactive: [19] 100 % of control | [20] 104 % of control | [21] 92 % of control

CN(C)c1ccc(/C=C\C(=O)c2ccc(C(=O)/C=C/c3ccc(N(C)C)cc3)cc2)cc1
inactive: dose: 12.5 mg/kg/injection, schedule: Q01DX009 (ip), vehicle: saline with Tween-80 99 % of control | dose: 25.0 mg/kg/injection, schedule: Q01DX009 (ip), vehicle: saline with Tween-80 96 % of control | [1] 90 % of control

O=c1c2ccccc2sc2c([N+](=O)[O-])ccc(NCC3CCCN4CCCCC34)c12 (stereo unspecified)
inactive: dose: 38.5 mg/kg/injection, schedule: Q01DX005 (ip), vehicle: saline with Tween-80 96 % of control | dose: 77.0 mg/kg/injection, schedule: Q01DX005 (ip), vehicle: saline with Tween-80 96 % of control | dose: 154.0 mg/kg/injection, schedule: Q01DX005 (ip), vehicle: saline with Tween-80 118 % of control

O=C(Nc1ccccc1)Nc1nccs1
inactive: [1] 92 % of control | [2] 96 % of control | [3] 93 % of control

O=CN(CCC(=O)O)c1ccccc1
inactive: [7] 106 % of control | [8] 113 % of control | [9] 107 % of control

C[n+]1ccccc1-c1nc(-c2cccc[n+]2C)nc(-c2cccc[n+]2C)n1
inactive: [22] 96 % of control | [23] 88 % of control

CC(=O)OCNCOC(C)=O
inactive: [16] 106 % of control | [17] 108 % of control | [18] 106 % of control

CCC(C)(C)NCCCCCNc1cc(OC)cc2cccnc12
inactive: [24] 94 % of control | [19] 95 % of control | [25] 101 % of control | [20] 95 % of control | [21] 91 % of control

OC(c1ccncc1)(c1ccc(Cl)cc1)c1cccs1 (stereo unspecified)
inactive: [26] 101 % of control | [27] 98 % of control | dose: 200.0 mg/kg/injection, schedule: Q01DX009 (ip), vehicle: Klucel (hydroxypropylcellulose) (HPC) 93 % of control

Fc1ccc(-c2nc3cc(-c4ccccc4)[nH]n3c2N=Nc2ccccc2)cc1
inactive: [19] 105 % of control | [20] 103 % of control | [21] 108 % of control

CCN=c1cc2sc3cc(NCC)c(C)cc3nc-2cc1C
inactive: [13] 97 % of control | [14] 99 % of control | [15] 101 % of control | [16] 90 % of control

OCCOCCSc1ccccn1
inactive: [7] 109 % of control | [8] 111 % of control | [9] 111 % of control

C#CCSc1nc2ccccc2s1
inactive: [26] 98 % of control | [27] 109 % of control

CS(=O)(=O)c1ccc(/C(=N/N)c2ccccc2)cc1
inactive: [22] 103 % of control | [23] 102 % of control | [26] 101 % of control and 93 % of control

CCCCCCC(/C=C/c1ccc(Cl)cc1)=N\O
inactive: [23] 106 % of control | [26] 104 % of control | [27] 100 % of control and 108 % of control

CC(=O)NC1CCOC1=O (stereo unspecified)
inactive: [4] 95 % of control | [5] 87 % of control | [6] 109 % of control | dose: 100.0 mg/kg/injection, schedule: Q01DX009 (ip), vehicle: water 111 % of control | dose: 200.0 mg/kg/injection, schedule: Q01DX009 (ip), vehicle: water 92 % of control

CC1=C(CCC(C)NCc2ccc(OCCCN3CCCCC3)cc2)C(C)(C)CCC1 (stereo unspecified)
inactive: [10] 104 % of control | [11] 98 % of control | [12] 104 % of control

CP1(=O)CC2=C(CC2)C1
inactive: [15] 108 % of control | [16] 103 % of control | [17] 95 % of control

Cc1ccc(S(=O)C2=CCCO2)cc1 (stereo unspecified)
inactive: [11] 100 % of control | [12] 102 % of control | [24] 101 % of control and 108 % of control | [25] 119 % of control | dose: 200.0 mg/kg/injection, schedule: Q01DX005 (ip), vehicle: Klucel (hydroxypropylcellulose) (HPC) 118 % of control
